Results: patent US8597904B2, “Pharmaceutical compositions for the treatment of conditions responsive to proteasome inhibition” (priority 2007, dated 2013)

Tested on: microtubule-associated protein 1 light chain 3 (LC3)
Assay: immunoblot of LC3 conversion (autophagy) in SK-N-SH cells
Type: cell-based, human
Procedure: To verify whether autophagy is induced in GlbA-treated cells, levels of microtubule-associated protein 1 light chain 3 (LC3), a reliable marker of autophagosomes, were measured. […] Therefore, this characteristic conversion of LC3 can be used to monitor autophagic activity. SK-N-SH cells were treated with GlbA in the presence or absence of 3-MA, and cell lysates were probed with LC3.

CCCCCCC/C=C/C=C/C(=O)N[C@H](C(=O)N[C@H]1C[C@@H](O)CCNC(=O)/C=C/[C@H](C)NC1=O)[C@@H](C)O [glidobactin A]
GlbA-induced autophagy after pre-treatment with 3-MA (GlbA with 3-MA pre-treatment): reverted GlbA-induced autophagy | LC3-II amount / conversion of LC3 (compared to untreated control cells): larger amounts of LC3-II
